Consider 3 compounds from US9441012B2, “Fluorinated epoxyketone-based compounds and uses thereof as proteasome inhibitors” (FLUORINOV PHARMA INC., priority 2012, dated 2016).

Test [1] concerns CCRF-CEM. Kind of test: NCI 60 human tumor cell line screen (SRB). The test is classed as cell-based. As to conditions: CCRF-CEM (Leukemia); 48 h.
Test [2] concerns the target T1, chymotrypsin-like (CT-L) proteasome activity (Mus musculus, UniProt O55234).
T1 construct: RBCs were lysed with assay lysis buffer and incubated on ice for 30 minutes; from tissue; host or cells: red blood cells of NOD/SCID mice after oral dosing
T1 sequence (O55234 60-264): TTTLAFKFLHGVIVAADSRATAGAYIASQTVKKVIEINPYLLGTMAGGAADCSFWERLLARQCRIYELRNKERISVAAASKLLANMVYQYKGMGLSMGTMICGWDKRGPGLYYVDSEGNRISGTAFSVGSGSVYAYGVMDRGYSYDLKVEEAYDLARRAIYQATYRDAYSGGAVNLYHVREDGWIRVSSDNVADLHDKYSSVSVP
The experiment in a line: Proteasome subunit activity in murine red blood cells after oral administration. The test is classed as in vivo, NOD/SCID mice. As to conditions: oral gavage, Example 1 50 mg/kg, Example 26 60 mg/kg. On the procedure: (§1) Cells were harvested by centrifugation at 1,200 rpm at room temperature. Cell pellets were washed with PBS and lysed with assay lysis buffer (50 mM HEPES (N-2-hydroxyethylpiperazine-N′-2-ethanesulfonic acid), pH 7.5; 150 mM NaCl; 1% Triton X-100; 2 mM ATP). Cell lysates were incubated on ice for 30 minutes, mixed by vortex every 5 minutes, and then centrifuged at 12,000 g for 10 minutes. The supernatant was transferred to a 96-well plate. For each assay, 10 μg of total protein were incubated for 1 hour at 37° C. with increasing concentrations (1 nM to 10 μM) of test compound diluted in assay buffer (50 mM Tris-HCl (tris(hydroxymethyl)aminomethane-HCl), pH 7.5; 150 mM NaCl). DMSO alone was used as a control in every assay plate. After incubation, a specific fluorogenic proteasome substrate was added to each assay reaction at a final concentration of 40 μM in a total volume of 100 μL. N-Succinyl-Leu-Leu-Val-Tyr-7-amino-4-methylcoumarin (Suc-Leu-Leu-Val-Tyr-AMC) was used for measuring chymotrypsin-like (CT-L) activity, t-butoxycarbonyl-Leu-Arg-Arg-7-amino-4-methylcoumarin (Boc-Leu-Arg-Arg-AMC) for trypsin-like (T-L) activity, and benzyloxycarbonyl-L-leucyl-L-leucyl-L-glutamyl-7-amino-4-methylcoumarin (Z-Leu-Leu-Glu-AMC) for caspase-like (C-L) activity. The excitation wavelength was set at 360 nm and the fluorescence emission wavelength of AMC was detected at 460 nm. The fluorescence of free AMC released during the enzymatic reaction was measured with a SpectraMax M5 fluorescent spectrophotometric plate reader (Molecular Devices, Sunnyvale, Calif.). AMC release rate was measured at 37° C. in a kinetic mode, recording every 5 minutes for 30 minutes. Experiments were performed in triplicate and repeated at least twice.
(§2) All mouse experiments were performed in accordance with approval from the Ontario Cancer Institute institutional animal review board. Five- to six-week-old male non-obese diabetic/severe combined immunodeficient (NOD/SCID) mice were grouped randomly (n=3 mice per group). Mice were administered vehicle (5% DMSO, 20% Cremophor) or compounds of Formula I at different doses either intravenously or by oral gavage, and venous blood samples (20-50 μL) were collected from each mouse over 24 hours. Blood samples were mixed with heparin (APP Pharmaceuticals; Schaumburg, Ill.) in 0.5 mL tubes in accordance with the manufacturer's instructions. After centrifugal separation at 3,000 g for 10 minutes, red blood cells (RBCs) in the bottom layer were transferred into a new tube and stored at −70° C. until use. RBCs were lysed with assay lysis buffer and incubated on ice for 30 minutes, mixing by vortex every 5 minutes, and then centrifuged at 12,000 g for 10 minutes. The supernatant was transferred to a 96-well plate and proteasome activity was measured as described in above for tumor cell lysates.
(§3) Proteasome subunit activity (Chymotrypsin-like, Trypsin-like, Caspase-like, CT-L, T-L, C-L, respectively) were monitored over the course of 24 hrs following […] administration of representative compounds of Formula I. NOD/SCID mice were treated with the compound from Example 1 (50 mg/kg by oral gavage) and the compound from Example 26 (60 mg/kg by oral gavage) or vehicle control for up to 24 hours, as described above.
(§4) Table 10 summarizes the data for the representative compounds of Formula (I); the compounds of Examples 1 and 26.

Test [3] addresses T2, Trypsin-like (T-L) proteasome activity (Mus musculus, UniProt P70195).
T2 construct: RBCs were lysed with assay lysis buffer and incubated on ice for 30 minutes; from tissue; host or cells: red blood cells of NOD/SCID mice after oral dosing
T2 sequence (P70195 44-277): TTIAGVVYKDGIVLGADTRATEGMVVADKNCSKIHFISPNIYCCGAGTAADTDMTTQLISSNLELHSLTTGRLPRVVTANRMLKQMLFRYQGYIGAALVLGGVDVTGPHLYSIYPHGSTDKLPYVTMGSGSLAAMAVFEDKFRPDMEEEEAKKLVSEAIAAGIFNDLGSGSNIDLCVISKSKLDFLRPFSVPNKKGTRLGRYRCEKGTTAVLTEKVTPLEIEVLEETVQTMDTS
The test is described as above. The test is classed as in vivo, NOD/SCID mice. As to conditions: oral gavage, Example 1 50 mg/kg, Example 26 60 mg/kg. On the procedure:
as §1, §2, §3, §4

In test [4] the target is T3, Caspase-like (C-L) proteasome activity (Mus musculus, UniProt Q60692).
T3 construct: RBCs were lysed with assay lysis buffer and incubated on ice for 30 minutes; from tissue; host or cells: red blood cells of NOD/SCID mice after oral dosing
T3 sequence (Q60692 1-238): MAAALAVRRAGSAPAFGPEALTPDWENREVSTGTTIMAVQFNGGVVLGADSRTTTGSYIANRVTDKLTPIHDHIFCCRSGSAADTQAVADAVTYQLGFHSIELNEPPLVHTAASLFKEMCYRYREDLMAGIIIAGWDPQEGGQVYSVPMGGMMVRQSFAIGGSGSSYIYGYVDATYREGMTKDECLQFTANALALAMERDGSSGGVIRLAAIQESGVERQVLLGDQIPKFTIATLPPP
The test is described as above. The test is classed as in vivo, NOD/SCID mice. As to conditions: oral gavage, Example 1 50 mg/kg, Example 26 60 mg/kg. How it is done:
as §1, §2, §3, §4

For test [5], the system named is EKVX. Kind of test: NCI 60 human tumor cell line screen (SRB). As to conditions: EKVX (Non-Small Cell Lung Cancer); 48 h. The format is cell-based.

Regarding `Cc1ncc(C(=O)N[C@@H](COC(F)F)C(=O)N[C@@H](COC(F)F)C(=O)N[C@@H](Cc2ccccc2)C(=O)[C@@]2(C)CO2)s1` [Example 1, 2-methyl-thiazole-5-carboxylic acid ((S)-1-{(S)-1-[(S)-1-benzyl-2-((R)-2-methyloxiranyl)-2-oxo-ethylcarbamoyl]-2-difluoromethoxyethylcarbamoyl}-2-difluoromethoxyethyl)-amide], the values for the Log10GI50 in test [1] and in test [5] were −7.26 and −6.22, respectively. Further, the Log10LC50 in test [1] and in test [5] was over −4.00 in each case. Also, the Log10TGI50 in test [1] and in test [5] was over −4.00 each time. Besides, the “chymotrypsin-like (CT-L) mean residual activity relative to vehicle treated controls” value in test [2] (30 min) was 27%; in test [2] (24 hours), 22%; in test [2] (time 0), 100%. Also, the “Trypsin-like (T-L) mean residual activity relative to vehicle treated controls” value in test [3] (30 min), in test [3] (24 hrs) and in test [3] (time 0) was 100% each time. Further, the “Caspase-like (C-L) mean residual activity relative to vehicle treated controls” value in test [4] (30 min), in test [4] (24 hrs) and in test [4] (time 0) was 100% in each case.

Consider `C[C@]1(C(=O)[C@H](Cc2ccccc2)NC(=O)[C@H](COC(F)F)NC(=O)[C@H](COC(F)F)NC(=O)CN2CCOCC2)CO1` [Example 26, (S)-N-{(S)-1-[(S)-1-Benzyl-2-((R)-2-methyl-oxiranyl)-2-oxo-ethylcarbamoyl]-2-difluoromethoxyethyl}-3-difluoromethoxy-2-(2-morpholin-4-yl-acetylamino)-propio-namide], for which the “chymotrypsin-like (CT-L) mean residual activity relative to vehicle treated controls” value is reported as 33% in test [2] (30 min), 27% in test [2] (24 hours) and 100% in test [2] (time 0). Moreover, the “Trypsin-like (T-L) mean residual activity relative to vehicle treated controls” value in test [3] (30 min), in test [3] (24 hrs) and in test [3] (time 0) was 100% in each case. Also, the “Caspase-like (C-L) mean residual activity relative to vehicle treated controls” value in test [4] (30 min), in test [4] (24 hrs) and in test [4] (time 0) was 100% each time.

With `C[C@]1(C(=O)[C@H](Cc2ccccc2)NC(=O)[C@H](Cc2ccccc2)NC(=O)[C@H](COC(F)F)NC(=O)CN2CCOCC2)CO1` [Example 29], in test [1], the Log10GI50 is −7.62, the Log10LC50 was over −4.00 and the Log10TGI50 is on record as over −4.00.
